# According to ChEMBL document CHEMBL3576796, “A Broad Anti-influenza Hybrid Small Molecule That Potently Disrupts the Interaction of Polymerase Acidic Protein-Basic Protein 1 (PA-PB1) Subunits” (J Med Chem, 2015):
# Assay: Antiviral activity against Influenza A virus A/Parma/24/09 (H1N1) (Oseltamivir-resistant) assessed as reduction in plaque formation after 48 hrs by plaque reduction assay
# Format: functional, Influenza A virus (A/Parma/24/2009(H1N1))
row,SMILES,EC50
1,CCCOc1ccc(C(=O)Nc2nc3n(n2)C(c2ccccc2)C=C(C)N3)cc1 (centres undefined),49 µM
2,Cc1cc(-c2ccccc2)nc2nc(NC(=O)c3ccccc3)nn12,25 µM
3,Cc1cc(-c2ccccc2)n2nc(C(=O)Nc3sc4c(c3C(N)=O)CCCCC4)nc2n1,25 µM
4,Cc1cc(-c2ccccc2)nc2nc(C(=O)Nc3sc4c(c3C(N)=O)CCCCC4)nn12,5 µM
